Reference: PMC12602806, “Itaconate reduces viral endocytosis by targeting Cys128 of the adaptor-related protein complex 1 gamma 1 subunit in the host, providing a novel target for antiviral drug development” (Molecular Biomedicine, 2025)

Biological target: T1, AP1G1 (Homo sapiens, UniProt O43747)
T1 construct: endogenous full-length AP1G1 in BEAS-2B cells or lysate; untagged
T1 sequence (O43747 1-822): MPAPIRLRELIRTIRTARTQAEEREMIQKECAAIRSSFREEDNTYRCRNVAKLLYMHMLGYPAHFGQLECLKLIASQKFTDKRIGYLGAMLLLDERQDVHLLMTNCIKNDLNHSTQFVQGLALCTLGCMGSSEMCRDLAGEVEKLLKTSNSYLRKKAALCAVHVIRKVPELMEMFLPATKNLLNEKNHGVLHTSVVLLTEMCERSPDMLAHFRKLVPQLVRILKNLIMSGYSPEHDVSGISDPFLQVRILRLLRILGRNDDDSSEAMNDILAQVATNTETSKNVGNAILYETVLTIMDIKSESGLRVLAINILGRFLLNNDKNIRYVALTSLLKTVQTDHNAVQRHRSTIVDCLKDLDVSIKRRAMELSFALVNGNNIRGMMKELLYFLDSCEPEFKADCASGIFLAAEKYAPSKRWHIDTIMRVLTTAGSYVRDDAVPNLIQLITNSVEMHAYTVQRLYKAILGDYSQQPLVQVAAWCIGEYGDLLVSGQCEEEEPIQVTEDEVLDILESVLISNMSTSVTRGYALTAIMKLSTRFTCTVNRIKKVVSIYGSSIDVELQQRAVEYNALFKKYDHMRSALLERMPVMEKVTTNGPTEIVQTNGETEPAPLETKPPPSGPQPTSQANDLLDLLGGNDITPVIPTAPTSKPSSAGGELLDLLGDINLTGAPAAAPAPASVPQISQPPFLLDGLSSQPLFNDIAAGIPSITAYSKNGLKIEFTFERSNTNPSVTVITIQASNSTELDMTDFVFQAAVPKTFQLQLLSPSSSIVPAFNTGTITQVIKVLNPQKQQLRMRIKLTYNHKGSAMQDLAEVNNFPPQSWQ
Experiment: CETSA-Western blot
Format: cell-based
Conditions: 40-65 ℃; covalent; Cys128; also competes with ITAP in BEAS-2B lysate

C=C(CC(=O)O)C(=O)O [itaconate]
CETSA-Western blot: Itaconate treatment significantly altered the thermal stability of AP1G1
